The values that follow are results of earlier work, collected in US20050002962A1, “Immunostimulatory agents in botanicals” (priority 2003, published 2005).

For one data set, the system named is mice. The settings on record: mouse, in vivo.
Another data set has as its system macrophages. The settings on record: 250 μg/ml.

On to `O=C(/C=C/c1ccc(O)c(O)c1)O[C@@H](C(=O)O)[C@@H](OC(=O)/C=C/c1ccc(O)c(O)c1)C(=O)O` [cichoric acid, Cichoric acid], for which the carbon clearance result in the data set with mice is “enhanced carbon clearance”. For arabinogalactan, in the data set on macrophages, the “macrophage IL-1 production, of maximal E. coli LPS (10 μg/ml)” value was 20% and the “macrophage interferon-β production versus maximal E. coli LPS (10 μg/ml)” value is reported as “equal to”. For echinacoside, in the data set on mice, the carbon clearance entry was “inactive”.
